Ends that are not written are not given here. Peptide text beside a SMILES is read from it. * marks the point of attachment. BODIPYFLEthylmaleimide = Cc1cc(C)n2c1C=C1C=CC(CCC(=O)NCCN3C(=O)CC(*)C3=O)=[N+]1[B-]2(F)F; BODIPY = not defined here; Cam = NC(=O)C*
Experiments:
[1] = Cytotoxicity of NLM-DR derived peptides (MTS, FACS, microscope), Table 2
[2] = system: human retinoblastoma cell lines Y79; assay: Cell death assay (MTS) in retinoblastoma cell line Y79; format: cell-based; details: for Y79 cells died: 5 μM concentration, longer treatment (FIG. 8C); for Induction of Y79 cell death: 3 hours, various concentrations, peptides without BODIPY
Experimental: Rb cell line Y79 were treated with various concentration of the Ant-CC2 (WT) (filled squares) or Ant-CC2 (Mu) (open squares) (A), or Ant-LZ (WT) (filled circles), or Ant-LZ (Mu) (open circles) (B), or Ant peptide (open triangle) (C) for 3 hours (A, B) or 16 hours (C). Cell survival was then evaluated using the MTS assay as described in “Materials and methods”
The detection of cell death was performed using the MTS assay provided by Promega (CellTiter 96® AQueous one solution cell proliferation assay). Briefly, 0.3×10^6 Y79 cells in 450 μl were treated with 50 μl of the wild type Ant-CC2 and Ant-LZ peptides (0.1 to 20 μM) or their mutants Ant-CC2 (Mu), Ant-LZ (Mu) or the Ant or left untreated in serum-free RPMI medium at 37° C. After an incubation of […], an aliquot of the cell suspension (200 μl, 0.12×10^6 cells), was then transferee in 96-well plates and mixed with the MTS solution (40 μl) containing the MTS compound and the phenazine ethosulfate. Two hours after, the quantity of formazan produced by viable cells was measured using an automated microplate reader (Bio-TeK Instruments, INC) at 490 nm absorbance. Cell survival was observed under microscope and was estimated as a percentage of the value of untreated controls. The background of the reaction was determined by mixing the MTS solution with cell-free RPMI medium. To increase the sensitivity of the cell death assay, the present inventors used peptides devoid of BODIPY-labeling because the absorption spectra of the fluorophor overlaps with that of the formazan product. All experiments were repeated twice and each experiment condition was repeated in duplicate wells in each experiment.

[3] = system: LPS-induced NF-κB activation; assay: NF-κB inhibition assay, first procedure: LPS-induced NF-κB dependent β-galactosidase reporter in 70Z/3-C3 cells; format: cell-based, murine; details: for LPS-induced NF-κB activation in presence of peptide: 20 μM peptide 2 h, LPS (3 μg/ml) 5 h, 70Z3-C3 cells
Experimental: The resulting cell line, 70Z3-C3, was incubated for 2 hours in the absence or in the presence of 20 μM of antennapedia peptide (Ant), or BODIPY-labeled antennapedia peptide (BODIPY-Ant), or BODIPY-labeled antennapedia peptide coupled to CC2 (BODIPY-Ant-CC2) or LZ (BODIPY-Ant-LZ) peptides, After peptide internalization, cells were treated for 5 hours with LPS (3 μg/ml, (+) in left panel) or untreated (right panel and (−) in left panel) and the NF-κB activity was measured by β-galactosidase assay. Error bars represent the standard deviation of three separate experiments. (B) Concentration dependence of inhibition of LPS-induced NF-κB activation by BODIPY-Ant-CC2 peptide (left panel) or BODIPY-Ant-LZ peptide (right panel). Cells were treated as in (A) but with different concentration of peptide as indicated. The potential of each peptide to inhibit LPS-induced NF-κB activation was measured by determining the IC50 value that correspond to 50% inhibition of LPS-induced NF-κB activation as compared to the control (no peptide) (C). (D) Effect of the N-fusion sequence of antennapedia on the inhibition of NF-κB activation. Control (no peptide) or CC2, or LZ peptides, with (BODIPY-ANT-CC2, BODIPY-ANT-LZ) or without the antennapedia sequence at the N-terminus (CC2, LZ) were incubated for 2 hours with 70Z3-C3 cells followed with (+) or without (−) the LPS-treatment for 3 hours. NF-κB activity was then measured by β-galactosidase assay.
In a first procedure 2.2×10^5 70Z/3-C3 cells in 220 μl of RPMI 1640 supplemented with 10% fetal calf serum (FCS) and 50 μM β-mercaptoethanol were placed in a 96-well plate and incubated with various concentrations of peptide (0 to 20 μM) at 37° C. in 5% CO2 incubator. After two hours an equal portion (100 μl) of each cell sample transferred in two wells containing each 10^5 cells. One aliquot of cells was then treated for 5 hours with lipopolysaccharides from Salmonella abortus (Sigma) at 0.5 μg/ml final concentration, and the other one left-treated. After 5 hours, cells were centrifuged at 400×g for 5 min at room temperature and the cell pellets were washed three times with cold PBS (250 μl) by centrifugation. Cells were then lysed in the lysis buffer (25 mM tris-phosphate buffer at pH 7.8 containing 8 mM magnesium chloride, 1 mM dithioerythreitol, 1% Triton X-100, 15% glycerol and a protease inhibitor mixture (Roche)), and samples were centrifuged at 4° C. for 20 min to clarify the lysate. The supernatant was then kept on ice, and 30 μl was then assayed to measure the β-galactosidase activity with a plate luminometer (Berthold) using the GALACTON-STAR™ as chemiluminescent substrate (BD Biosciences Clontech, Bronstein et al., 1989). Background of reaction was measured by mixing for 1 hour 30 μl of lysis buffer with the reaction buffer (196 μl) and the GALACTON-STAR™ substrate (4 μl) provided by BD Biosciences. In a second procedure and a more stringent assay, 70Z/3-C3 cells (2.2×105 in 220 μl medium) were centrifuged at 400×g at room temperature after peptide internalization for 2 hours, and cell pellets were washed three times with 200 μl of PBS by centrifugation. Cells were then diluted three times with complete medium, and allowed to grow for at least 24 hours. The following steps are identical to the first procedure.
To analyze the inhibition potential of LPS-induced NF-κB activation by cell permeable BODIPY-Ant-CC2 and BODIPY-Ant-LZ peptides, the present inventors stably transfected the murine pre-B 70Z3 cell line with p12XlacZ-kB, which bears the β-galactosidase reporter gene under the control of the NF-κB transcription factor.

[4] = system: LPS-induced NF-κB activation; assay: More stringent NF-κB inhibition assay, second procedure: peptide internalization, washing, 24 h growth, then LPS; format: cell-based, murine; details: 10 μM peptide
From the text: Left panels show a helical wheel diagram of CC2 (A) and LZ (B) peptides. The view is from the top the molecule. The (a) through (g) positions, which are an essential feature of coiled coil sequence (Vinson, 2002, Mol. Cell. Biol.) represent sequential positions in each peptide sequence. The first (a) and fourth (d) positions that are generally occupied by hydrophobic amino acids constitute the hydrophobic core for parallel as well as antiparallel-coiled coils. Mutations that were introduced in (a) positions of the CC2 variant (BODIPY-Ant-CC2 (Mu); shown as residues 6-40 of SEQ ID NO:3, with glycine mutations corresponding to residues 6-40 of SEQ ID NO:5) or in (d) positions of the LZ variant (BODIPY-Ant-(Mu) are shown. In the right panels, 70Z3-C3 cells were incubated for 2 hours in the absence (control) or in the presence of 10 μM of cell permeable wild type (BODIPY-Ant-CC2 (WT)) or mutant (BODIPY-Ant-CC2 (Mu)) CC2 peptides (A) or wild type (BODIPY-Ant-LZ (WT)) or mutant (BODIPY-Ant-(Mu)) LZ peptides (B). The cells were then extensively washed to remove the excess peptide which had not been internalized and the cells were then diluted three times and allowed to grow for 24 hours before treatment for 5 hours with (+) or without LPS (−). NF-κB activity was measured using the β-galactosidase assay. Error bars represent the standard deviation of two independent experiments.
(A) Sequence alignment of the NEMO-derived LZ (residues 301-336 of SEQ ID NO: 12) and the GCN4 peptides (residues 23-55 of SEQ ID NO:8). Both coiled-coil motifs were aligned using clustalX. Identical and similar amino acid residues (shaded) are indicated by (!) or (*), respectively. (B) Overview and helical wheel diagram of the GCN4 coiled-coil (top view). The amino-acid sequence of GCN4 is shown with its corresponding [a-g] positions and residues that differ from the corresponding NEMO-derived LZ sequence are boxed according to their degree of conservation. Identical (open square) and similar residues (open triangle) are indicated. […] NF-κB activity was measured using the b-galactosidase assay. […]

[5] = Analytical gel filtration, oligomeric states of peptides; format: physicochemical; details: 10 μM, Superdex 75, buffer with 0.1 mM DDM
Experimental: All peptides were loaded at a 10 μM concentration on a superdex 75 HR10/30 column equilibrated in a buffer containing 0.1 mM DDM to improve recovery (see “Materials and methods”). Chromatographic profiles of the CC2 mutant (dashed line) and the CC2 wild type (solid line) fused (BODIPY-Ant-CC2 (WT), BODIPY-Ant-CC2 (Mu), or not fused to the antennapedia sequence (CC2 (WT), CC2 (Mu)) are shown in left panels, and elution profiles of the LZ mutant (dashed line) and the wild type (solid line) fused (BODIPY-Ant-LZ (WT), BODIPY-Ant-LZ (Mu), or not fused to the antennapedia sequence (LZ (WT), LZ (Mu)) are represented in right panels. Elution volumes of globular protein markers are indicated by arrows: Oval, ovalbumin (43 kDa); Chym, chymotrypsinogene A (25 kDa); Ribo, Ribonuclease (13.4 kDa) and Apro, aprotinin (6.5 kDa).
The oligomeric states of peptides were determined by filtration as described in Traincard et al., 2003. In brief, 500 μl samples were loaded on a SUPERDEX™ 75 HR 10/30 column equilibrated in 50 mM Tris-HCl pH 8.0 containing 200 mM NaCl and 0.1 mM DDM, at a constant flow rate of 0.4 ml/min. The presence of the DDM detergent was added in the equilibrium buffer to minimize the adsorption in the column and to increase the peptide recovery. The column was calibrated in the same equilibrium buffer with blue dextran 2000 (void volume), dithioerythritol (total volume), bovine serum albumin (67 kDa, Rs=35.2 Å), ovalbumine (43 kDa, Rs=27.5 Å), chymotrypsinogen A (25 kDa, Rs=21.1 Å), ribonuclease A (13.7 kDa, Rs=16.4 Å), cytochrome C (12.4 kDa, Rs=17.7 Å) and aprotinin (6.5 KDa, Rs=13.5 Å).

Compound: CC[C@H](C)[C@H](NC(=O)[C@H](CC(=O)O)NC(=O)[C@H](C)NC(=O)[C@H](CCC(N)=O)NC(=O)[C@H](C)NC(=O)[C@H](CCCCN)NC(=O)[C@H](CC(C)C)NC(=O)[C@H](CCCNC(=N)N)NC(=O)[C@H](CCCNC(=N)N)NC(=O)[C@H](CCCNC(=N)N)NC(=O)[C@H](CCC(N)=O)NC(=O)[C@H](CCCNC(=N)N)NC(=O)[C@H](CCCNC(=N)N)NC(=O)[C@H](CCCCN)NC(=O)[C@H](CCCCN)NC(=O)[C@H](CCCNC(=N)N)NC(=O)CNC(=O)[C@H](Cc1ccc(O)cc1)NC(=O)[C@H](CSC1CC(=O)N(CCNC(=O)CCC2=[N+]3C(=Cc4c(C)cc(C)n4[B-]3(F)F)C=C2)C1=O)NC(C)=O)C(=O)N[C@@H](Cc1ccc(O)cc1)C(=O)N[C@@H](CCCCN)C(=O)N[C@@H](C)C(=O)N[C@@H](CCCNC(=N)N)C(=O)N[C@@H](Cc1ccccc1)C(=O)N[C@@H](CCC(N)=O)C(=O)N[C@@H](C)C(=O)N[C@@H](CCC(=O)O)C(=O)N[C@@H](CCCNC(=N)N)C(=O)N[C@@H](Cc1c[nH]cn1)C(=O)N[C@@H](C)C(=O)N[C@@H](CCCNC(=N)N)C(=O)N[C@@H](CCC(=O)O)C(=O)N[C@@H](CCCCN)C(N)=O (stereo partly shown) [BODIPY-TAT-NLM-DR] (Ac-C(BODIPYFLEthylmaleimide)YGRKKRRQRRRLKAQADIYKARFQAERHAREK-NH2)
- Cytotoxicity Cell morphology FACS [1]: no
- Cytotoxicity Cell morphology Microscope [1]: no

Compound: Ac-C(Cam)RQIKIWFQNRRMKWKKLKAQADIYKADFQAERHAREKLVEKKEYLQEQLEQLQREFNKL-NH2 [Ant-LZ]
- Y79 cells died [2]: 80%

Compound: Ac-C(Cam)RQIKIWFQNRRMKWKKSKGMQLEDLRQQLQQAEEALVAKQELIDKLKEEAEQHKIV-NH2 [Ant-CC2]
- Y79 cells died [2]: 55%

Compound: Ant-CC2 (Mu): mutant Ant-CC2 devoid of BODIPY-labeling (SEQ ID NO: 4) (Ac-CRQIKIWFQNRRMKWKKSKGMQLEDLRQQGQQAEEAGVAKQELGDKLKEEAEQHKIV-NH2)
- Induction of Y79 cell death [2]: did not induce concentration cell death

Compound: Ant-LZ (Mu): mutant Ant-LZ devoid of BODIPY-labeling (SEQ ID NO: 8) (Ac-CRQIKIWFQNRRMKWKKLKAQADIYKADFQAERHAREKLVEKKEYSQEQLEQSQREFNKL-NH2)
- Induction of Y79 cell death [2]: not

Compound: Ant: antennapedia/penetratin internalization peptide without BODIPY label (SEQ ID NO: 1) (CRQIKIWFQNRRMKWKK) [reference compound]
- LPS-induced NF-κB activation in presence of peptide [3]: same level of NF-κB activation as the control
- Effect on Y79 cell survival, longer treatment ([2]; 16 hours (FIG. 8C)): did not affect cell survival

Compound: B-CRQIKIWFQNRRMKWKK ({BODIPY}-CRQIKIWFQNRRMKWKK; reading uncertain) [BODIPY-Ant, reference compound]
- LPS-induced NF-κB activation in presence of peptide [3]: same level of NF-κB activation as the control

Compound: B-CRQIKIWFQNRRMKWKKLKAQADIYKADFQAERHAREKLVEKKEYLQEQLEQLQREFNKL (C(BODIPY)RQIKIWFQNRRMKWKKLKAQADIYKADFQAERHAREKLVEKKEYLQEQLEQLQREFNKL-NH2; not fully specified (N-terminus); reading uncertain) [BODIPY-Ant-LZ (WT)]
- LPS-induced NF-κB activation in presence of peptide [3]: decreased significantly
- LPS-induced NF-κB activation in presence of peptide ([3]; listed as “Leucine zipper” peptide): completely eliminates cell response

Compound: B-CRQIKIWFQNRRMKWKKLKAQADIYKADFQAERHAREKLVEKKEYSQEQLEQSQREFNKL (C(BODIPY)RQIKIWFQNRRMKWKKLKAQADIYKADFQAERHAREKLVEKKEYSQEQLEQSQREFNKL-NH2; not fully specified (N-terminus); printed as B-CRQIKIWFQNRRMKWKKLKAQADIYKADFQAERHAREKLVEKKEYSQEQLEQSQREFNKL; reading uncertain) [BODIPY-Ant-LZ (Mu)]
- Inhibition of NF-κB activation compared to the control [4]: 15%

Compound: LKAQADIYKADFQAERHAREKLVEKKEYLQEQLEQLQREFNKL [LZ (WT)]
- LPS-induced NF-κB activation, peptides not fused to antennapedia ([3]; peptide 2 h, LPS 3 h, 70Z3-C3 cells (FIG. 3D)): same level of activation as the control
- Oligomeric state by gel filtration [5]: dimer

Compound: LKAQADIYKADFQAERHAREKLVEKKEYSQEQLEQSQREFNKL [LZ (Mu)]
- Oligomeric state by gel filtration [5]: still detected dimerization

Compound: SKGMQLEDLRQQGQQAEEAGVAKQELGDKLKEEAEQHKIV [CC2 (Mu)]
- Oligomeric state by gel filtration [5]: lost its ability to oligomerize

— patent US8790883B2, “Methods of identifying NF-κB inhibitors” (priority 2003, dated 2014)
